Results reported in patent US20240424005A1, “DIAGNOSING, MONITORING AND TREATING NEUROLOGICAL DISEASE WITH PS[…] DERIVATIVES AND mRNA MEASUREMENTS” (NOVA MENTIS LIFE SCIENCE CORP., priority 2021, published 2024).
Entries after “also recorded” stand apart in the source; their conditions may differ.

Tests used:
[1] = test system: red blood cells; assay: Toxicity and oxidative stress in red blood cells
[2] = Observation of discomfort/intoxication after repeated oral microdosing; type: in vivo, rat; conditions: Experiment 3: 0.1 or 0.3 mg/kg p.o. repeated; immediately and days after administration
Method: (§1) We performed three experiments testing Fmr1-^Δexon 8 rats and WT controls in the novel object recognition task using three different treatment schedules for psilocybin administration: • 1. Experiment 1: a single dose of either 1 (Hibicke et al., 2020) or 3 mg/kg psilocybin given intraperitoneally (i.p.) eight days before behavioral testing (FIG. 8A); • 2. Experiment 2: repeated microdoses of psilocybin (0.1 mg/kg) given i.p. three times every other day, with behavioral testing starting five days after the last administration (FIG. 8B); • 3. Experiment 3: repeated microdoses of psilocybin (0.1 or 0.3 mg/kg) (Higgins et al., 2021) given orally (p.o.) three times every other day, for two consecutive weeks, with behavioral testing starting five days after the last administration (FIG. 8C).
To increase the translational value of our findings, we finally decided to assess the effects of repeated oral administration of 0.1 and 0.3 mg/kg psilocybin microdoses, for two weeks every other day, in our Fmr1-^Δexon 8 rats. The animals were tested five days after the last treatment, to prevent any hallucinogenic effect of the drug at the time of behavioral performance.

[3] = 0.1 mg/kg, rats; Higgins et al., 2021; cited from earlier work
[4] = test system: wild-type (WT) animals; assay: Novel object recognition task in wild-type control rats; type: in vivo, rat
Method: The experiments were performed in Fmr1-^Δexon 8 rats on a Sprague-Dawley background (Horizon Discovery, formerly SAGE Labs, USA), proposed as a genetic model of ASD and rat model of FXS (Golden et al., 2019; Schiavi et al., 2022); the corresponding wild-type (WT) animals were used as controls.
as §1
We have recently shown that Fmr1-^Δexon 8 rats show impaired novel object recognition memory at adolescence (Schiavi et al., 2022). […] On the training trial, each rat was individually placed into an open-field arena containing two identical objects (A1 and A2), equidistant from each other, and allowed to explore the objects for 5 min. Thirty minutes later, one copy of the familiar object (A3) and a new object (B) were placed in the same location as during the training trial. Each rat was placed in the apparatus for 5 minutes, and the time spent exploring each object was recorded. The discrimination index was calculated as the difference in time exploring the novel and the familiar objects, expressed as the percentage ratio of the total time spent exploring both objects (Schiavi et al., 2022).
Data are expressed as mean±SEM and were analyzed by two-way ANOVA, with genotype (WT or Fmr1-^Δexon 8) and treatment (psilocybin or vehicle) as factors. Tukey's post hoc test was used for individual group comparisons. The accepted value for significance was set at p<0.05. Data were analyzed using GraphPad Prism 8 software.

[5] = test system: VPA-exposed rats; assay: Elevated plus-maze test in rats prenatally exposed to valproic acid; type: in vivo, rat; conditions: offspring of VPA-treated pregnant rats
Method: Female Wistar rats (Charles River), weighing 250±15 g, were mated overnight. The morning when spermatozoa were found was designated as gestational day 1 (GD1). Pregnant rats were singly housed in Macrolon cages (401×26w x 20h cm), under controlled conditions (temperature 20-21° C., 55-65% relative humidity and 12/12h light cycle with lights on at 07:00 a.m.). Food and water were available ad libitum. On gestational day 12.5, females received a single intraperitoneal injection of either sodium valproate (VPA) or saline (SAL). […] Newborn litters found up to 5.00 p.m. were considered to be born on that day (Postnatal day (PND) 0). On PND 1, the litters were culled to eight animals (six males and two females). On PND 21, the pups were weaned and housed in groups of three. […]
The apparatus comprised two open and two closed arms (501×10×40 h cm) that extended from a common central platform (101×10 w cm). […] Each session was recorded with a camera positioned above the apparatus for subsequent behavioral analysis performed using the Observer 3.0 software (Noldus Information Technology). The following parameters were analyzed: […]
Data are expressed as mean±SEM. To assess the effects of prenatal VPA exposure and psilocybin on behavioral parameters, data were analyzed by two-way ANOVA, with prenatal treatment and postnatal treatment as factors. […]

Row | Compound | toxicity in red blood cells [1] | signs of discomfort/intoxication in the animals [2] | side effects on motor activity or stereotypies [3] | cognitive performance of WT animals (% discrimination index) ([4]; Experiment 1: single dose 1 mg/kg i.p. eight days before testing, WT rats) | cognitive performance of WT animals (% discrimination index) ([4]; Experiment 1: single dose 3 mg/kg i.p. eight days before testing, WT rats vs WT vehicle, p<0.001, 3 mg/kg) | cognitive performance of WT animals ([4]; Experiment 2: 0.1 mg/kg i.p. three times every other day, WT rats) | cognitive performance of WT animals ([4]; Experiment 3: 0.1 or 0.3 mg/kg p.o. repeated for two weeks, WT rats) | performance in wild-type (WT) control animals ([4]; repeated microdoses (schedule not given at the place)) | safety of treatment in the VPA model [5]
1 | CN(C)CCc1c[nH]c2cccc(O)c12 [psilocin] | non-toxic | – | – | – | – | – | – | – | –
2 | CN(C)CCc1c[nH]c2cccc(OP(=O)(O)O)c12 [psilocybin] | non-toxic | did not induce any sign of discomfort/intoxication | devoid of side effects on motor activity or stereotypies | did not affect the performance of WT animals | poorer cognitive performance; also recorded: detrimental effect | without affecting the performance of WT animals | without affecting the performance of WT animals | without affecting the performance | safe
